Values joined by “and” are separate entries in the source; they are usually repeats but may differ in a detail not shown here. Equal values may be shown once. Active and inactive are the calls of the source.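 The calls were made as follows: active = fitted curve reaches a 40% rise in lysis activity at or below the top valid tested dose; inconclusive = flat curve holding a 30 to 70% rise, or poor fit; inactive = signal moving opposite to the expected rise, and the rest.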
Test system: not listed separately
Experiment: Cryptococcus neoformans cell lysis inducers, dose response, AK release luminescence, dry powder (AID 743159)
Conditions: Cryptococcus neoformans lysis, adenylate kinase release luminescence, 4 h; at 15 µM (top of the series)

With `CCOC(=O)c1c(NC(=O)CNCCN(C)C)sc(C)c1-c1ccccc1` the lysis activity increase was 16.9% (inactive).
With `CCOC(=O)c1c(-c2ccc(OC)cc2)csc1NC(=O)CN(C)CC(=O)N(C)C` the lysis activity increase was -2.9% (inactive).
With `Cc1ccc(OCCn2c(SCCO)nc3ccccc32)c(C(C)C)c1` the lysis activity increase was 18.7% (inactive).
For `O=c1[nH]c2ccccc2n1CCOc1ccccc1`, the lysis activity increase was -3.24% (inactive) and 10.6% (inactive).
For `CCOC(=O)c1c(-c2ccc(F)cc2)csc1NC(=O)CN1CCN(CC)CC1`, the lysis activity increase was 20.2% (inactive).
For `CCOC(=O)c1c(NC(=O)CN2CCN(C)CC2)sc(C)c1-c1ccc(C)cc1`, the lysis activity increase was -2.55% (inactive).

Test system: Cryptococcus neoformans lysis, adenylate kinase release luminescence, 4 h
Experiment: as above
Conditions: not given

Compared with `S=c1[nH]c2cccc(Cl)c2n1CCOc1ccccc1`, `S=c1[nH]c2ccccc2n1CCOc1ccccc1` is 1.9-fold higher in AC40: 851 nM for the first, 1630 nM for the second.

`COC(=O)C1=C(C)N(Cc2ccc(Br)cc2)C(=S)NC1c1ccc(OC)cc1` (stereo not given) and `COC(=O)C1=C(C)N(Cc2ccc(Br)cc2)C(=S)NC1c1ccc(F)cc1` (stereo not given) are within 1.5-fold of each other in AC40: 925 nM for the first, 681 nM for the second.

Compared with `Cc1ccc(OCCn2cnc3ccccc32)cc1`, `Cc1ccc(OCCn2c(C)nc3ccccc32)cc1` is 1.9-fold lower in AC40: 2860 nM for the first, 1480 nM for the second.

`CCOC(=O)c1c(-c2ccc(C(C)(C)C)cc2)csc1NC(=O)CN1CCN(C)CC1` and `CCOC(=O)c1c(-c2ccc(C(C)(C)C)cc2)csc1NC(=O)CN1CCN(CC)CC1` are within 1.5-fold of each other in AC40: 6330 nM for the first, 6310 nM for the second.

Compared with `COC(=O)C1=C(C)N(Cc2ccc(F)cc2)C(=S)NC1c1cccc(F)c1` (stereo not given), `COC(=O)C1=C(C)N(Cc2ccc(Cl)cc2)C(=S)NC1c1ccc(Br)cc1` (stereo not given) is 5.1-fold lower in AC40: 2300 nM for the first, 454 nM for the second.

First: Cc1cccc(OCCn2c(=S)[nH]c3cc(C(F)(F)F)ccc32)c1
Second: Cc1ccc2c(c1)[nH]c(=S)n2CCOc1ccccc1
The AC40 of the first is 1.7-fold higher: 352 nM for the first, 211 nM for the second.

Going from `Cc1ccc(C(C)C)c(OCCn2c(=S)[nH]c3ccccc32)c1` to `Cc1ccccc1OCCn1c(=S)[nH]c2ccccc21`, the AC40 rises from 232 nM to 596 nM (2.6-fold).

Going from `S=c1[nH]c2ccccc2n1CCOc1ccc(Cl)cc1` to `Cc1ccc(OCCn2c(=S)[nH]c3ccccc32)cc1`, the AC40 rises from 270 nM to 703 nM (2.6-fold).

`Fc1ccccc1OCCn1c(=S)[nH]c2ccccc21` and `Fc1cccc2c1[nH]c(=S)n2CCOc1ccccc1` are within 1.5-fold of each other in AC40: 1770 nM for the first, 1500 nM for the second.

Compared with `CCOc1ccc(OCCn2c(=S)[nH]c3ccccc32)cc1`, `COC(=O)C1=C(C)N(Cc2ccccc2)C(=S)NC1c1ccc(Br)cc1` (stereo not given) is 2.1-fold higher in AC40: 880 nM for the first, 1810 nM for the second.

`CCOC(=O)c1c(-c2ccc(-c3ccccc3)cc2)csc1NC(=O)CNCCN(C)C` showed an AC40 of 6640 nM.

With `c1ccc(OCCn2cnc3ccccc32)cc1` the AC40 was > 15000 nM (inactive).
With `Cc1ccc(OCCn2c(=S)[nH]c3ccccc32)c(C(C)C)c1` the AC40 was 334 nM and 155 nM.
With `CCOC(=O)c1c(-c2ccc(F)cc2)csc1NC(=O)CN1CCN(C)CC1` the AC40 was > 15000 nM (inactive).

— PubChem BioAssay AID743159 (Broad Institute, 2013)
